Source: ChEMBL document CHEMBL4270577, “Synthesis, anticancer activity and molecular modeling studies of 1,2,4-triazole derivatives as EGFR inhibitors” (Eur J Med Chem, 2018)

Columns and labels:
[1] = test system: SNB-19; assay: Growth inhibition of human SNB19 cells at 10 uM incubated for 48 hrs by sulforhodamine B assay relative to control; type: functional; settings: SNB-19, 48 h, read-out: GI
[2] = test system: COLO 205; assay: Growth inhibition of human COLO205 cells at 10 uM incubated for 48 hrs by sulforhodamine B assay relative to control; type: functional; settings: COLO 205, 48 h, read-out: GI
[3] = test system: SN12C; assay: Growth inhibition of human SN12C cells at 10 uM incubated for 48 hrs by sulforhodamine B assay relative to control; type: functional; settings: read-out: GI
[4] = test system: TK-10; assay: Growth inhibition of human TK10 cells at 10 uM incubated for 48 hrs by sulforhodamine B assay relative to control; type: functional; settings: TK-10, 48 h, read-out: GI
[5] = test system: UACC-257; assay: Growth inhibition of human UACC257 cells at 10 uM incubated for 48 hrs by sulforhodamine B assay relative to control; type: functional; settings: UACC-257, 48 h, read-out: GI
[6] = test system: RPMI-8226; assay: Growth inhibition of human RPMI8226 cells at 10 uM incubated for 48 hrs by sulforhodamine B assay relative to control; type: functional; settings: RPMI-8226, 48 h, read-out: GI
[7] = test system: UACC-62; assay: Growth inhibition of human UACC62 cells at 10 uM incubated for 48 hrs by sulforhodamine B assay relative to control; type: functional; settings: UACC-62, 48 h, read-out: GI
[8] = test system: DU-145; assay: Growth inhibition of human DU145 cells at 10 uM incubated for 48 hrs by sulforhodamine B assay relative to control; type: functional; settings: DU-145, 48 h, read-out: GI
[9] = test system: HCT-15; assay: Growth inhibition of human HCT15 cells at 10 uM incubated for 48 hrs by sulforhodamine B assay relative to control; type: functional; settings: HCT-15, 48 h, read-out: GI
[10] = test system: SR; assay: Growth inhibition of human SR cells at 10 uM incubated for 48 hrs by sulforhodamine B assay relative to control; type: functional; settings: read-out: GI
[11] = test system: HOP-62; assay: Growth inhibition of human HOP62 cells at 10 uM incubated for 48 hrs by sulforhodamine B assay relative to control; type: functional; settings: HOP-62, 48 h, read-out: GI
[12] = test system: SF-295; assay: Growth inhibition of human SF295 cells at 10 uM incubated for 48 hrs by sulforhodamine B assay relative to control; type: functional; settings: SF-295, 48 h, read-out: GI
[13] = test system: MDA-MB-231; assay: Growth inhibition of human MDA-MB-231/ATCC cells at 10 uM incubated for 48 hrs by sulforhodamine B assay relative to control; type: functional; settings: MDA-MB-231, 48 h, read-out: GI
[14] = test system: NCI/ADR-RES; assay: Growth inhibition of human NCI/ADR-RES cells at 10 uM incubated for 48 hrs by sulforhodamine B assay relative to control; type: functional; settings: read-out: GI
[15] = test system: A549; assay: Growth inhibition of human A549/ATCC cells at 10 uM incubated for 48 hrs by sulforhodamine B assay relative to control; type: functional; settings: A549, 48 h, read-out: GI
[16] = test system: SF-539; assay: Growth inhibition of human SF539 cells at 10 uM incubated for 48 hrs by sulforhodamine B assay relative to control; type: functional; settings: SF-539, 48 h, read-out: GI
[17] = test system: SK-MEL-2; assay: Growth inhibition of human SK-MEL-2 cells at 10 uM incubated for 48 hrs by sulforhodamine B assay relative to control; type: functional; settings: SK-MEL-2, 48 h, read-out: GI
[18] = test system: MDA-MB-435; assay: Growth inhibition of human MDA-MB-435 cells at 10 uM incubated for 48 hrs by sulforhodamine B assay relative to control; type: functional; settings: MDA-MB-435, 48 h, read-out: GI
[19] = test system: PANC-1; assay: Antiproliferative activity against human PANC1 cells after 48 hrs by propidium iodide staining-based fluorometric analysis; type: functional, cell-based; settings: PANC-1, 48 h
[20] = test system: KM12; assay: Growth inhibition of human KM12 cells at 10 uM incubated for 48 hrs by sulforhodamine B assay relative to control; type: functional; settings: KM12, 48 h, read-out: GI
[21] = test system: NCI-H322M; assay: Growth inhibition of human NCI-H322M cells at 10 uM incubated for 48 hrs by sulforhodamine B assay relative to control; type: functional; settings: read-out: GI
[22] = test system: NCI-H226; assay: Growth inhibition of human NCI-H226 cells at 10 uM incubated for 48 hrs by sulforhodamine B assay relative to control; type: functional; settings: NCI-H226, 48 h, read-out: GI
[23] = test system: SK-MEL-5; assay: Growth inhibition of human SK-MEL-5 cells at 10 uM incubated for 48 hrs by sulforhodamine B assay relative to control; type: functional; settings: SK-MEL-5, 48 h, read-out: GI
[24] = test system: A498; assay: Growth inhibition of human A498 cells at 10 uM incubated for 48 hrs by sulforhodamine B assay relative to control; type: functional; settings: A498, 48 h, read-out: GI
[25] = test system: EKVX; assay: Growth inhibition of human EKVX cells at 10 uM incubated for 48 hrs by sulforhodamine B assay relative to control; type: functional; settings: read-out: GI
[26] = test system: Hs-578T; assay: Growth inhibition of human Hs 578T cells at 10 uM incubated for 48 hrs by sulforhodamine B assay relative to control; type: functional; settings: read-out: GI
[27] = test system: HL-60(TB); assay: Growth inhibition of human HL-60(TB) cells at 10 uM incubated for 48 hrs by sulforhodamine B assay relative to control; type: functional; settings: HL-60, 48 h, read-out: GI
[28] = target: Epidermal growth factor receptor (Homo sapiens, UniProt P00533); assay: Inhibition of His6-tagged recombinant EGFR cytoplasmic domain (645 to 1186 residues) (unknown origin) expressed in baculovirus infected Sf9 insect cells preincubated for 10 mins followed by ATP-MgCl2 addition and measured after 1 hr by DELFIA/time-resolved fluorometric analysis
[29] = test system: RXF 393; assay: Growth inhibition of human RXF393 cells at 10 uM incubated for 48 hrs by sulforhodamine B assay relative to control; type: functional; settings: RXF 393, 48 h, read-out: GI
[30] = test system: HT-29; assay: Antiproliferative activity against human HT-29 cells after 48 hrs by propidium iodide staining-based fluorometric analysis; type: functional, cell-based; settings: HT-29, 48 h
[31] = test system: NCI-H522; assay: Growth inhibition of human NCI-H522 cells at 10 uM incubated for 48 hrs by sulforhodamine B assay relative to control; type: functional; settings: NCI-H522, 48 h, read-out: GI
[32] = test system: OVCAR-4; assay: Growth inhibition of human OVCAR4 cells at 10 uM incubated for 48 hrs by sulforhodamine B assay relative to control; type: functional; settings: OVCAR-4, 48 h, read-out: GI
[33] = test system: 786-0; assay: Growth inhibition of human 786-0 cells at 10 uM incubated for 48 hrs by sulforhodamine B assay relative to control; type: functional; settings: 786-0, 48 h, read-out: GI
[34] = test system: HCT-116; assay: Growth inhibition of human HCT116 cells at 10 uM incubated for 48 hrs by sulforhodamine B assay relative to control; type: functional; settings: HCT-116, 48 h, read-out: GI
[35] = test system: SF-268; assay: Growth inhibition of human SF268 cells at 10 uM incubated for 48 hrs by sulforhodamine B assay relative to control; type: functional; settings: SF-268, 48 h, read-out: GI

Chain of Epidermal growth factor receptor (P00533 whole entry, the tested form may be a part): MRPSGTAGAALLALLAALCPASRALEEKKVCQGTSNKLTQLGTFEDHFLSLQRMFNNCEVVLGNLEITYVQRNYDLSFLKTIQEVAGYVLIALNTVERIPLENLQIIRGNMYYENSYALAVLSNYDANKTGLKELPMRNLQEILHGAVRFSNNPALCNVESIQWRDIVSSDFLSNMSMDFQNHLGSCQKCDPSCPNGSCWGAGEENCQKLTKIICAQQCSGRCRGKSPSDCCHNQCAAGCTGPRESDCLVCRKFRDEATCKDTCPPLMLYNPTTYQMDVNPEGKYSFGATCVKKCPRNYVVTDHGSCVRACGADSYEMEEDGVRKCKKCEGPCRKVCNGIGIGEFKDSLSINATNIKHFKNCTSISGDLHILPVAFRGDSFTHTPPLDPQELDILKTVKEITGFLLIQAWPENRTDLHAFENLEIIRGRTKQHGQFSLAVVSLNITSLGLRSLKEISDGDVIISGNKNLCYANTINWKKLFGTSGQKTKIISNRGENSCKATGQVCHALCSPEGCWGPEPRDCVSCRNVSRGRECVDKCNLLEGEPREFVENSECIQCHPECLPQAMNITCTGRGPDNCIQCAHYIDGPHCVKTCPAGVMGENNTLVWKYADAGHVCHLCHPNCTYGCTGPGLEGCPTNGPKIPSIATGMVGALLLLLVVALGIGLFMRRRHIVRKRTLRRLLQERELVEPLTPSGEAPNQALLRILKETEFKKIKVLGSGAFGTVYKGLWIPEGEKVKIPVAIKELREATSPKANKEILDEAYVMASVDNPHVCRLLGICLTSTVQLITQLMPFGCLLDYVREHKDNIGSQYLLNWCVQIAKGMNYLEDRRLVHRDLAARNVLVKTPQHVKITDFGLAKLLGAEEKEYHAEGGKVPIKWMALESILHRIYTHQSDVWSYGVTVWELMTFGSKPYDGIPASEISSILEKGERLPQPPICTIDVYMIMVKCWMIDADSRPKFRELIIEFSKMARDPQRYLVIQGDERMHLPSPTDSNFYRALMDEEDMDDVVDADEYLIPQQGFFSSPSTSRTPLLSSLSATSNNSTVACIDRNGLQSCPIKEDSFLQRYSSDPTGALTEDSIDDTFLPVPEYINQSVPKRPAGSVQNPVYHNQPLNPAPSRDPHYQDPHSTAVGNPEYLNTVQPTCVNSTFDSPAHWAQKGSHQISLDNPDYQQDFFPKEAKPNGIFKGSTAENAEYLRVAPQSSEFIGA

SMILES | inhibition of growth at 10 µM [1] [%] | inhibition of growth at 10 µM [2] [%] | inhibition of growth at 10 µM [3] [%] | inhibition of growth at 10 µM [5] [%] | inhibition of growth at 10 µM [6] [%] | inhibition of growth at 10 µM [7] [%] | inhibition of growth at 10 µM [8] [%] | inhibition of growth at 10 µM [9] [%] | inhibition of growth at 10 µM [11] [%] | inhibition of growth at 10 µM [13] [%] | inhibition of growth at 10 µM [14] [%] | inhibition of growth at 10 µM [15] [%] | IC50 [19] [µM] | inhibition of growth at 10 µM [20] [%] | inhibition of growth at 10 µM [21] [%] | inhibition of growth at 10 µM [22] [%] | inhibition of growth at 10 µM [23] [%] | inhibition of growth at 10 µM [24] [%] | inhibition of growth at 10 µM [25] [%] | inhibition of growth at 10 µM [26] [%] | also measured
COc1cc(-c2nc3sc(-c4ccccc4)cn3n2)cc(OC)c1OC | 10 | 15 | 19 | 10 | 42 | 31 | 9 | 42 | 15 | 41 | 39 | 23 | 4.9 | 14 | 7 | 23 | 41 | 29 | 63 | 26 | inhibition of growth at 10 µM [4]: 6%; inhibition of growth at 10 µM [10]: 65%; inhibition of growth at 10 µM [12]: 16%; inhibition of growth at 10 µM [16]: 15%; inhibition of growth at 10 µM [17]: 20%; inhibition of growth at 10 µM [18]: 16%; inhibition of growth at 10 µM [27]: 37%; IC50 [28]: 2.8 µM; inhibition of growth at 10 µM [29]: 17%; IC50 [30]: 4.9 µM; inhibition of growth at 10 µM [31]: 30%; inhibition of growth at 10 µM [32]: 17%; inhibition of growth at 10 µM [33]: 14%; inhibition of growth at 10 µM [34]: 40%; inhibition of growth at 10 µM [35]: 9%
COc1ccc(-c2nc3sc(-c4ccccc4)cn3n2)cc1 | 34 | 63 | 37 | 28 | 21 | 42 | 16 | 69 | 49 | 53 | 66 | 49 | 4.5 | 70 | 14 | 23 | 65 | 56 | 37 | 40 | inhibition of growth at 10 µM [10]: 58%; inhibition of growth at 10 µM [12]: 38%; inhibition of growth at 10 µM [16]: 24%; inhibition of growth at 10 µM [17]: 40%; inhibition of growth at 10 µM [18]: -8.6%; inhibition of growth at 10 µM [27]: 32%; IC50 [28]: 5.6 µM; inhibition of growth at 10 µM [29]: 24%; IC50 [30]: 6.6 µM; inhibition of growth at 10 µM [31]: 70%; inhibition of growth at 10 µM [32]: 37%; inhibition of growth at 10 µM [33]: 11%; inhibition of growth at 10 µM [34]: 60%; inhibition of growth at 10 µM [35]: 28%
c1ccc(-c2nc3sc(-c4ccccc4)cn3n2)cc1 | 11 | 5 | 20 | 13 | 14 | 33 | 15 | 8 | 33 | 35 | 14 | 10 | 7.2 | 18 | 11 | 27 | 20 | 13 | 21 | 9 | inhibition of growth at 10 µM [10]: 9%; inhibition of growth at 10 µM [17]: 5%; inhibition of growth at 10 µM [27]: 21%; IC50 [28]: 9.8 µM; inhibition of growth at 10 µM [29]: 9%; IC50 [30]: 8.4 µM; inhibition of growth at 10 µM [31]: 19%; inhibition of growth at 10 µM [32]: 23%; inhibition of growth at 10 µM [34]: 11%; inhibition of growth at 10 µM [35]: 7%
COc1ccc(-c2nc3sc(-c4ccc(Cl)cc4)cn3n2)cc1 | -1.95 | 47.5 | 94.7 | 15.4 | 55.1 | 31.4 | 19.3 | 28 | 60.4 | 86.7 | 54.4 | -30 | 2.8 | 45.3 | 82.2 | 49.9 | 27.4 | -25.8 | 52.5 | 73 | inhibition of growth at 10 µM [4]: -30.8%; inhibition of growth at 10 µM [10]: 48.9%; inhibition of growth at 10 µM [12]: 75.8%; inhibition of growth at 10 µM [16]: 84.6%; inhibition of growth at 10 µM [18]: 25%; IC50 [28]: 1.5 µM; inhibition of growth at 10 µM [29]: 41%; IC50 [30]: 2.4 µM; inhibition of growth at 10 µM [31]: 39%; inhibition of growth at 10 µM [32]: -63.3%; inhibition of growth at 10 µM [33]: -75.8%; inhibition of growth at 10 µM [34]: -16%; inhibition of growth at 10 µM [35]: 34.9%
Clc1ccc(-c2cn3nc(-c4ccccc4)nc3s2)cc1 | 57 | 18 | 22 | 15 | 10 | 18 | 14 | 9 | 40 | 57 | 34 | 36 | 5.2 | 30 | 20 | 32 | 21 | 52 | 28 | 40 | inhibition of growth at 10 µM [4]: 18%; inhibition of growth at 10 µM [12]: 21%; inhibition of growth at 10 µM [16]: 21%; inhibition of growth at 10 µM [18]: 11%; inhibition of growth at 10 µM [27]: 15%; IC50 [28]: 7.2 µM; inhibition of growth at 10 µM [29]: 39%; IC50 [30]: 5.9 µM; inhibition of growth at 10 µM [31]: 29%; inhibition of growth at 10 µM [32]: 60%; inhibition of growth at 10 µM [33]: 53%; inhibition of growth at 10 µM [34]: 41%; inhibition of growth at 10 µM [35]: 20%
